Experimental data from PubChem BioAssay AID449764 (Southern Research Specialized Biocontainment Screening …, 2010).

System: Mycobacterium tuberculosis H37Rv growth inhibition, no glycerol
Assay: Mycobacterium tuberculosis H37Rv growth inhibition, no glycerol, confirmatory dose response (AID 449764);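 note: growth read after 7 days of incubation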
Details: for IC90: measured here: IC90 growth inhibition

Row | SMILES | IC50 | IC90
1 | COc1cc(/C=C2\C(=O)N(c3ccc(S(N)(=O)=O)cc3)N=C2C)ccc1OC(=O)c1ccco1 | 22.6 µM | 26.1 µM
2 | COc1cc2c(cc1OC)C(c1cc(Br)ccc1F)N(C(=O)CCl)CC2 (configuration not stated) | 16.6 µM | 23 µM
3 | CCOc1cccc(C=Nc2cc(C)cc(C)c2O)c1O | 31.2 µM | 41.4 µM
4 | Cn1c(-c2c(N)n(CCc3ccccc3)c3nc4ccccc4nc23)nc2ccccc21 | 17.9 µM | > 100 µM
5 | CC(=O)Nc1ccc(N2C(C(C)=O)=NN(c3ccc(Cl)cc3)C2c2sccc2C)cc1 (configuration not stated) | 66.6 µM | 83.9 µM
6 | Oc1ccccc1NCC(O)Cn1ccc2ccccc21 (configuration not stated) | 11.5 µM | 12.3 µM
7 | COc1ccc(-c2cc(C3CCN(C(=O)OC(C)(C)C)CC3)[nH]n2)cc1 | 38.7 µM | 53.7 µM
8 | Cc1ccnc(NC(=O)CCc2c[nH]c3ccccc23)c1 | 21.5 µM | 31.9 µM
9 | CCOc1ncccc1C(=O)OCC(=O)N1CCc2ccccc21 | 25.5 µM | > 100 µM
10 | CCO[C@H]1OC(C(=O)NCc2nc3ccccc3[nH]2)=C[C@@H](c2csc3ccccc23)[C@@H]1CCCO | 36.5 µM | 49.2 µM
11 | c1ccc(CN2CCN(CCCNc3ccc4nnc(-c5ccccc5)n4n3)CC2)cc1 | 22.1 µM | 25.3 µM
12 | Cn1c(CNc2ccccc2O)nc2ccccc21 | 3.05 µM | 3.36 µM
13 | C=CCc1cc(C)ccc1OCCCC(C(=O)OCC)C(=O)OCC | 28.1 µM | 52.1 µM
14 | S=c1nc[nH]c2nc[nH]c12 | 3.32 µM | 5.19 µM
15 | CCCn1c(N2CCN(Cc3ccc(Cl)cc3)CC2)nc2ccccc21 | 25.2 µM | 38 µM
16 | CC(=O)c1cccc(NC(=S)NC2CCCCCCC2)c1 | 27.3 µM | > 100 µM
17 | CCOC(=O)N1CCc2c(sc(NC(=O)c3ccc(Cl)s3)c2C(N)=O)C1 | 6.96 µM | 19.1 µM
18 | Cn1nc(-c2ccc(N3CCCCC3)c(NC(=O)c3ccco3)c2)c2ccccc2c1=O | 8.18 µM | 12.2 µM
19 | Nc1cc([N+](=O)[O-])cc2oc(-c3ccccc3)cc12 | – | > 100 µM
20 | Cc1cc(O)c2c(c1)C(=O)c1cc(O)cc(O)c1C2=O | 89 µM | > 100 µM
21 | CCOC(=O)c1c(C)n(-c2ccc(C)cc2)c2ccc(OCC(O)CNCC3CCCO3)cc12 (configuration not stated) | 22.8 µM | 25.7 µM
22 | O=C(CCc1nnc(CCCc2ccccc2)o1)NCCCC1CCCC1 | 21.5 µM | 24.9 µM
23 | Cc1cc(-c2n[nH]c(=S)n2/N=C/C(Br)=C/c2ccccc2)n[nH]1 | 5.55 µM | 8.35 µM

Row | SMILES | IC50 | IC90
24 | COC(=O)COc1ccc(-c2nn(C)c(=O)c3ccccc23)cc1 | 13.1 µM | 58.5 µM
25 | CCCCN1C(=O)C2(NNc3ccccc3O2)c2ccccc21 (configuration not stated) | 92.1 µM | > 100 µM
26 | COC(=O)c1c(NC(=O)CC2SC(N)=NC2=O)sc2c1CCC(C(C)(C)C)C2 (configuration not stated) | 40.2 µM | 64.4 µM
27 | Cc1ccc2c(c1)c1ncnc(N3CCc4ccccc4C3)c1n2C | 73.8 µM | > 100 µM
28 | CC1CCN(c2nc(Cl)nc(Nc3ccc([N+](=O)[O-])cc3)n2)CC1 | 78.9 µM | > 100 µM
29 | CSCCC(=O)N1CCCC(CNC(=O)c2ccc(-c3ccccc3)cc2)C1 (configuration not stated) | 41.5 µM | 70.6 µM
30 | CCCCCCOC(=O)C(C#N)c1nc2ccccc2nc1N1CCN(CC)CC1 (configuration not stated) | 21.3 µM | 32.3 µM
31 | CC(C)(C)C(=O)/C(=C\c1cccc([N+](=O)[O-])c1)n1cncn1 | 3 µM | 3.41 µM
32 | CCc1ccc(C2c3[nH]c4ccccc4c3CCN2C(=O)c2ccc(=O)n(C)n2)cc1 (configuration not stated) | 51.3 µM | 93.4 µM
33 | CN(Cc1ccco1)c1ncnc2ccc(-c3ccc4c(ccn4C)c3)cc12 | 40.9 µM | 59.4 µM
34 | CO[C@@]12[C@H](COC(N)=O)C3=C(C(=O)C(C)=C(N)C3=O)N1C[C@@H]1N[C@@H]12 | 74.9 µM | > 100 µM
35 | CCCOC(=O)c1ccc(-c2ccc(C=O)o2)cc1 | 21.1 µM | > 100 µM
36 | Cc1cc2c(N=O)c(NO)ccc2[nH]1 | 11.9 µM | 18.2 µM
37 | CC1CCCC(NC(=O)NC(=O)CCl)C1C (configuration not stated) | 8.62 µM | 14.3 µM
38 | CC(C(Sc1ccccc1N)c1ccccc1)[N+](=O)[O-] (configuration not stated) | – | > 100 µM
39 | CCN(CC)c1ccc2nc3ccccc3[n+](CC)c2c1 | 3.23 µM | 5.55 µM
40 | Cc1cc(=O)oc2c(C)c(OCC(=O)N3CCN(C(=O)C4COc5ccccc5O4)CC3)ccc12 (configuration not stated) | 77.1 µM | > 100 µM
41 | CC(O)CNc1nc2ccccc2n1-c1ncnc2sc3c(c12)CCC3 (configuration not stated) | 35.2 µM | 42.1 µM
42 | O=C(C[n+]1ccc(C(=O)c2ccccc2)cc1)Nc1ccc(C(F)(F)F)cc1 | 23.4 µM | 26.7 µM
43 | COc1ccc(-c2ccc(-c3noc(C(C)C)n3)c(OC)n2)cc1 | 40.3 µM | 54.6 µM
44 | CCOc1cc2c(cc1OCC)-n1cccc1C(c1ccc(C(C)C)cc1)NC2 (configuration not stated) | 20.2 µM | 28.7 µM
45 | CCCCn1cnc2c(c(-c3ccccc3)c(-c3ccccc3)n2Cc2ccco2)c1=N | 94.8 µM | > 100 µM
46 | Cc1ccc(C(=O)C2CCN(CC(=O)Nc3nc(C)cs3)CC2)cc1 | 48.4 µM | 53.6 µM

Row | SMILES | IC50 | IC90
47 | Cc1ccc(C)c(S(=O)(=O)N2CCC(c3nc4c(nnn4Cc4ccc5c(c4)OCCO5)c(=O)[nH]3)CC2)c1 | 24.2 µM | > 100 µM
48 | CC1CCC(C(C)C)C(OC(=O)Cn2c(-c3ccc(F)cc3)[n+](C)c3ccccc32)C1 (configuration not stated) | 10.8 µM | 14.4 µM
49 | CC/C(C)=N/NC(=S)NCc1ccco1 | 81.1 µM | 91.7 µM
50 | CCOc1cc(C=O)cc(N=Nc2cccc([N+](=O)[O-])c2)c1O | 8.41 µM | 13.5 µM
51 | Cc1ccc2nc(/C(C#N)=C/c3cn[nH]c3-c3ccc(F)cc3)[nH]c2c1 | 19.2 µM | 25.4 µM
52 | COc1cccc(Nc2ccc([N+](=O)[O-])c3nonc23)c1 | 9.9 µM | 14.5 µM
53 | CC1=CC(=O)c2c(O)ccc(O)c2C1=O | 5.64 µM | 7.87 µM
54 | Fc1cccc(CCN2CCNC[C@H]2Cc2cccc3ccccc23)c1 | 35.5 µM | 46.3 µM
55 | CN1C(C(=O)NCc2ccc(OC(F)(F)F)cc2)CC2Cn3c(nc4cc(Cl)c(Cl)cc43)C21 (configuration not stated) | 44.2 µM | 70.4 µM
56 | S=C(Nc1ccc(Cl)cc1)NC1CC2CCC(C1)N2Cc1ccccc1 (configuration not stated) | 63.1 µM | 95.6 µM
57 | O=C(Nc1ncc(Cc2ccccc2Cl)s1)C1=NCCN1 | 23.7 µM | > 100 µM
58 | CCCC(NCC(O)COc1ccc(-c2ccccc2)cc1)c1ccccc1 (configuration not stated) | 12.8 µM | 14.7 µM
59 | Cc1c(Cl)cccc1-c1ccc(CNCc2ccccn2)o1 | 4.66 µM | 13.6 µM
60 | O=C(NC1CCN(Cc2ccccc2)CC1)c1cccc(S(=O)(=O)Nc2ccc(SC(F)F)cc2)c1 | 19.3 µM | 27.9 µM
61 | CC(C)(C)OC(=O)NNc1c2ccccc2nc2ccccc12 | 22.6 µM | 25.2 µM
62 | COC1=CC(=O)c2ccccc2C1=O | 22.8 µM | 24.6 µM
63 | CCCc1cnc(NCCNCC(O)COc2ccc(Cl)c(Cl)c2)nc1 (configuration not stated) | 24.2 µM | 27.7 µM
64 | COc1ccccc1OC(=O)c1ccc(S(=O)(=O)N(C)C)cc1 | 16.4 µM | 35.8 µM
65 | O=C(OCc1ccc([N+](=O)[O-])cc1)c1cc2ccccc2oc1=O | 12 µM | > 100 µM
66 | Cc1ccc(-c2csc3ncnc(Nc4ccc(N5CCOCC5)cc4)c23)cc1 | 23.9 µM | 26.2 µM
67 | Cc1ccc(Cl)cc1N1CCN(C(=O)C2CCC(=O)N(C3CCCCCC3)C2)CC1 (configuration not stated) | 28.7 µM | 40.4 µM
68 | CN1CCN(c2ccc(S(=O)(=O)N3CCCCC3)cc2NC(=O)/C=C/c2ccc(Cl)c([N+](=O)[O-])c2)CC1 | 34.9 µM | 47.6 µM
69 | NC(=O)c1ccc(N=Cc2ccc([N+](=O)[O-])s2)cc1 | 16.9 µM | 19.8 µM

Row | SMILES | IC50 | IC90
70 | CC(C)OC(=O)CSc1nc2ccccc2s1 | 22.1 µM | 36.7 µM
71 | CCCNc1nc(-c2cc(C(=O)Nc3ccccc3)on2)cc(C(C)C)n1 | 42.5 µM | 68.9 µM
72 | Cc1ccc2[nH]c3c(N4CCN(Cc5ccccc5)CC4)ncnc3c2c1 | 25.1 µM | 46 µM
73 | CCC(=O)N1c2ccc(S(=O)(=O)CCC(=O)N3CCn4c3nc3ccccc34)cc2CC1C (configuration not stated) | 23.4 µM | 27.5 µM
74 | O=C(CCn1c(=O)c2cccn2c2cccnc21)N1CCN(c2cccc(Cl)c2)CC1 | 30.6 µM | 46.9 µM
75 | CN(C)c1ccc(/C=C2\N=C(C(C)(C)C)OC2=O)cc1 | 86 µM | > 100 µM
76 | Nc1n[nH]c(C2CC2)c1N=Nc1ccc(Cl)cc1 | 32.4 µM | 54.3 µM
77 | COc1cc(NC(=O)c2cccs2)c(C(=O)OCC(=O)NCc2ccco2)cc1OC | 34.9 µM | > 100 µM
78 | Cc1ccc(C(=O)N/N=C(/CC(=O)c2cccs2)C(F)(F)F)cc1 | 2.25 µM | 3.18 µM
79 | N#Cc1ccc(OCC(O)CN2CCN(c3ncc(C(F)(F)F)cc3Cl)CC2)cc1 (configuration not stated) | 15.4 µM | 24.3 µM
80 | O=C(CCl)c1ccc2c(c1)CCN2C(=O)C1CCCCC1 | 41.5 µM | > 100 µM
81 | CCC1(c2ccccc2)ON(c2c(Br)cccc2Br)C1=O (configuration not stated) | 40.2 µM | 77.3 µM
82 | S=C1SCN(Cc2ccco2)CN1Cc1ccco1 | 43.1 µM | 54.2 µM
83 | O=C(COC(=O)c1cccs1)c1ccccc1 | 45.8 µM | > 100 µM
84 | CC/C(=C(\c1ccc(O)cc1)c1ccc(OCCN(C)C)cc1)c1ccccc1 | 26.5 µM | 45 µM
85 | CSc1ccc(NC(=O)Nc2cccn(Cc3ccccc3)c2=O)cc1 | – | > 100 µM
86 | NC(=S)N/N=C/c1ccc(-c2ccccc2)o1 | 44 µM | 90.7 µM
87 | C#CCOC(=O)/C(=C/C=C/c1ccccc1)NC(=O)c1ccccc1 | 27.1 µM | 56.6 µM
88 | O=C(C[n+]1ccc(C(=O)N/N=C/c2ccc(O)cc2)cc1)c1ccccc1 | 9.55 µM | > 100 µM
89 | c1ccc(CN2CCC(Nc3nc(-c4ccccc4)nc4ccccc34)CC2)cc1 | 10.9 µM | 16.6 µM
90 | O=C(/C=C/Sc1ncn[nH]1)c1ccc(Cl)cc1 | 34.7 µM | 55.1 µM
